Molecules are shown by their SMILES.

One experiment deals with Jeko-1. The experiment is described as follows: Akt phosphorylation inhibition in Jeko-1 cells (high expression of PI3Kδ). The settings on record: Jeko-1 cell line with high expression of PI3Kδ. It counts as cell-based.
The next experiment has as its system p-AKT. Briefly: Western blot analysis of p-AKT protein expression level in BT474 tumor tissue samples. The conditions noted are these: BT-474 nude mouse transplanted tumor model, 0.5 h, 4 h, 24 h after administration. It counts as in vivo. The procedure: 7.1 Protein extraction and quantification
1) Quick-frozen tissue samples were taken out from the refrigerator at −80° C.
2) Operating on dry ice, cutting part of the tissues (about 30 mg), putting them into a 2 mL centrifuge tube with steel balls, and adding 500 μL of cell lysate RIPA (1% protease inhibitor and phosphatase inhibitor had been newly added).
3) Tissue was broken for 5 minutes using the highest frequency of Tissuelyser LT.
4) The tissue lysate was placed on ice for 30 minutes.
5) Centrifuging at 12,000 rpm at 4° C. for 10 minutes and removing the supernatant into a new 1.5 mL centrifuge tube.
6) The protein was quantified by BCA quantitative kit.
7) According to the quantitative results, the protein sample for loading was prepared, the protein concentration of the sample was unified to 2 μg/μL, LDS loading buffer (4×) and sample reducing agent (10×) were added, and the sample was heated at a constant temperature of 100° C. for 10 minutes.
8) Western blotting, or storing the denatured samples in a refrigerator at −80° C.
1) The sample for loading was thawed. […]
5) After the membrane transfer was finished, the membrane was cut according to the molecular weight of the protein to be detected, the membrane was washed with 1×TBST for 3 times and 5 minutes each time, and was shaken at room temperature. […]
13) Chemiluminescence was detected and photographed on the Tanon 5200 multi machine.

For another experiment, the target named is T1, PI3Kγ (Homo sapiens, UniProt P48736).
T1 construct: purchased Millipore 14-558-K
T1 sequence (P48736 whole entry): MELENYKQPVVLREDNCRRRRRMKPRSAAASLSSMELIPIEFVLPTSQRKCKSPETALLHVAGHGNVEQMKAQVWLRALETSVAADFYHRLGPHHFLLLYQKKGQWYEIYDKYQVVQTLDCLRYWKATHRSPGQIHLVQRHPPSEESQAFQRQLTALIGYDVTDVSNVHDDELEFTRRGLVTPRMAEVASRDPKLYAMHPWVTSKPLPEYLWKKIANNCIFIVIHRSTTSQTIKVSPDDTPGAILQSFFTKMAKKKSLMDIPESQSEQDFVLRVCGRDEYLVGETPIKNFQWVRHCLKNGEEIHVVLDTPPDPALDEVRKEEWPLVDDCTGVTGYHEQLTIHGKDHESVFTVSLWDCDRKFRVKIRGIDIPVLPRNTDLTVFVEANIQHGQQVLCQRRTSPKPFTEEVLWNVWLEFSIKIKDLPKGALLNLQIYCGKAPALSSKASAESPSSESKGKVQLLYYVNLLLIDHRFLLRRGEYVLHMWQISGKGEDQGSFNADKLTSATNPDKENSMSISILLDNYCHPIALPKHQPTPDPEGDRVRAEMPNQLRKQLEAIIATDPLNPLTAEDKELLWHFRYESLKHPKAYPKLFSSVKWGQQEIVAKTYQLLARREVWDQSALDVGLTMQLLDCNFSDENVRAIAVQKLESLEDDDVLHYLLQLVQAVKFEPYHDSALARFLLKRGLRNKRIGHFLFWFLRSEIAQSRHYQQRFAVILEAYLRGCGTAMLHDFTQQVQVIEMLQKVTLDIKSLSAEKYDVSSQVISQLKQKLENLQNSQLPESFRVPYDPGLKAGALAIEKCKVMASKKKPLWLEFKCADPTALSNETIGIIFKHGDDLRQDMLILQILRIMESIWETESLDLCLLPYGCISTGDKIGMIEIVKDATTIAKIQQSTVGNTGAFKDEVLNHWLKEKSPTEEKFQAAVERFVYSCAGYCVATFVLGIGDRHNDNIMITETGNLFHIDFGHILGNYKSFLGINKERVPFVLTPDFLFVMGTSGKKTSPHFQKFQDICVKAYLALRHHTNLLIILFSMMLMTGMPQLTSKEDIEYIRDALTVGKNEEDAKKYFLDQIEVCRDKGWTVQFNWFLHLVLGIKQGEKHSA
Briefly: In vitro enzymatic activity test (ADP-Glo lipid kinase), PI3Kγ. It counts as biochemical. The settings on record: inhibitory activity against PI3Kα relative to PI3Kγ. The procedure:
The lipid kinase reaction was carried out in a suitable substrate and under ATP conditions, then the activity of the kinase was detected by ADP-Glo™ kit in two steps. Step 1: the kinase reaction was terminated, in which the residual ATP was completely removed and only ADP was retained; step 2: kinase detection reagent was added to convert ADP to ATP, accompanied by fluorescein/luciferase reaction. Finally, the fluorescence value output was converted into kinase activity.
Experimental Materials and Equipment:
2) Kit: ADP-Glo™ lipid kinase and PIP2:3PS kit (Promega #V1792)
The reagent kit contains: 1 mM PIP2:3PS, 10× lipid dilution buffer, 1 M magnesium chloride, 10 mM ATP, 10 mM ADP, ADP-Glo reagent, detection buffer and detection substrate.
3) Reaction plate: OptiPlate-384, white and transparent (PerkinElmer #6007299)
1) 10× reaction buffer: 500 mM HEPES, pH 7.5, 500 mM NaCl, […]; BSA: 10% stock solution, self-made
2) Final test system conditions: 1× reaction system: 50 mM of HEPES, 50 mM of NaCl, 3 mM of MgCl2, 0.01% BSA (freshly prepared on the day of experiment), 1% DMSO (v/v)+/−compound
3) Reaction system: 3 μL of mixture of enzyme and substrate (1:1)+2 μL of ATP/MgCl2 mixture+5 μL of ADP-Glo reagent+10 μL of detection reagent.
The specific experimental operations were as follows: […]
(16) Fluorescence values were measured on the Envision instrument.

Consider `CNC(=O)[C@H](C)Cn1cnc2ccc(-c3cnc(OC)c(NS(=O)(=O)c4ccc(F)cc4F)c3)cc2c1=O`, for which the “Selectivity PI3Kα over PI3Kδ, Akt phosphorylation inhibitory activity in cells” value in the experiment on Jeko-1 turned out to be 23.0 times. The “Akt phosphorylation level downstream of PI3K in tumor tissue (Western blot, FIG. 10)” value in the experiment on p-AKT is given as “significantly inhibit”. On PI3Kγ, the “Selectivity PI3Kα/γ (kinase)” value amounted to 6.61 times.

These data come from patent publication US20220213060A1, “Crystal Form of Quinazolinone Compound and Preparation Method Therefor” (Luoxin Healthcare Science and Technology Development …, priority 2019, published 2022).
